{"source": "patent US20250248993A1", "about": "“CAMPTOTHECIN DERIVATIVES THAT BIND TO DDX5 PROTEIN AND PRODRUGS THEREOF” (priority 2022, published 2025)", "key": {"[1]": {"system": "survivin, cIAP2, Mcl-1, and XIAP", "assay": "Western blot, expression inhibition of anti-apoptotic proteins in FaDu cell line", "type": "cell-based", "conditions": "FaDu, 0, 10, 100 nM, 24 hours"}, "various cancer lines": {"system": "various cancer lines", "conditions": "cited from earlier work"}, "DDX5": {"molecular_target": "DDX5 (Homo sapiens, UniProt P17844)", "sequence (P17844 whole entry)": "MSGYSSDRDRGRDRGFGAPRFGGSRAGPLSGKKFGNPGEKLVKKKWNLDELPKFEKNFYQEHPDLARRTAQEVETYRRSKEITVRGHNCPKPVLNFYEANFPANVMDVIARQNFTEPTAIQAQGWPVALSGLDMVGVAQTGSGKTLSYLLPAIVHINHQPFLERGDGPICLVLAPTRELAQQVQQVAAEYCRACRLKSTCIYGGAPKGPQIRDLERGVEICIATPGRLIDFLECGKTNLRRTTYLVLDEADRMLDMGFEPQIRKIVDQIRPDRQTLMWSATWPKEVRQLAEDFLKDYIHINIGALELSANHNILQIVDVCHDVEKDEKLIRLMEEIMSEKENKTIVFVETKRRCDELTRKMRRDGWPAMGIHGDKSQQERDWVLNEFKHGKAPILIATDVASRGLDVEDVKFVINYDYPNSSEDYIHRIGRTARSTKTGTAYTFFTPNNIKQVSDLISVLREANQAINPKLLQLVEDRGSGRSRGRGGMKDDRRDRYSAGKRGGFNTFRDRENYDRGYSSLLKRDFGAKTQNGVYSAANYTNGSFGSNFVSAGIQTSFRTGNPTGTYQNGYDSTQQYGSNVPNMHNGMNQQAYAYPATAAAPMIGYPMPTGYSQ", "assay": "Western blot, DDX5 degradation in FaDu and A549 cell lines", "type": "cell-based", "design": "endogenous in cells; host or cells: FaDu, A549", "conditions": "FaDu and A549, 0, 10, 100 nM"}, "FaDu cell line": {"system": "FaDu cell line", "assay": "Cell viability assay (CellTiter-Glo), FaDu cell line", "type": "cell-based", "conditions": "FaDu not expressing ABCG2, 3 days", "procedure": "After 24 hours, the cells were treated with 100 μL of each drug at nine different concentrations (⅕ serial dilutions from 1000 nM). […] Here, a control (drug concentration: 0) that was not treated with a drug was also prepared. The cells were cultured (37° C., 5% CO2) for 3 or 6 days. 100 μL of the CellTiter-Glo reagent (using the CellTiter-Glo® Luminescent Cell Viability Assay kit (Promega, G7571)) was added to each well and pipetted. After incubating at room temperature (RT) for 10 minutes, luminescence was measured."}, "[2]": {"assay": "Lactone to carboxylate form conversion at pH 7.4", "type": "physicochemical", "conditions": "pH 7.4, 37° C.", "procedure": "Subsequently, it was centrifuged under conditions of 4° C., 2 minutes, and 13000 RCF, and a supernatant was used as a sample.\nThe column used was a Cortecs C18 2.7 μm, 4.6×50 mm column, and analysis was conducted under the following conditions: 1) 20 min: 5% B, 2) sample injection, 3) 2 min: 5% B, 4) 10 min: 5% B→50% B, and 5) 1 min: 50% B.\nTo measure changes over time, a sample chamber was maintained at 37° C. and a sample was set to be injected at each measurement time. The measurement time was set to 0, 20, 40, 60, 90, 120, 180, 240, 300, 360, 480, 600, and 720 minutes.\nThe content of each of lactone and carboxylate was calculated from the peak area thereof. Since the absorption coefficients of lactone and carboxylate are different, the lactone area was obtained by multiplying the carboxylate area by the equation below."}, "[3]": {"conditions": "mouse, in vivo"}, "in vivo": {"assay": "in vivo", "conditions": "NOD SCID, mouse, 1 mg/kg, Plasma Concentration"}, "[4]": {"conditions": "dose more than 10 times higher than a clinically applicable dose; cited from earlier work"}}, "note": "Where two headings read alike, the source gives them in different places.", "data": [{"smiles": "CC[C@@]1(O)C(=O)OCc2c1cc1n(c2=O)Cc2c-1nc1cc3c(c4c1c2[C@@H](NC(=O)CO)CC4)OCO3", "note": "[PBX-7014]", "values": [{"measurement": "expression of anti-apoptotic proteins (survivin, cIAP2, Mcl-1, XIAP)", "setting": "[1]", "result": "decreased as the concentration increased"}]}, {"smiles": "CC[C@@]1(O)C(=O)OCc2c1cc1n(c2=O)Cc2cc3cc4c(cc3nc2-1)OCO4", "note": "[FL118, reference compound]", "values": [{"measurement": "IC50", "setting": "various cancer lines; majority of 140 cell lines originating from various cancer types", "result": "< 0.1", "unit": "µM"}, {"measurement": "DDX5 degradation / inhibition", "setting": "DDX5", "result": "superior to other substances"}, {"measurement": "expression of anti-apoptotic proteins (survivin, cIAP2, Mcl-1, XIAP)", "setting": "[1]", "result": "strongly suppresses the expression of an anti-apoptotic protein"}]}, {"smiles": "CC[C@@]1(O)C(=O)OCc2c1cc1n(c2=O)Cc2c-1nc1cc3c(c4c1c2[C@@H](NC(=O)[C@@H](O)C1CC1)CC4)OCO3", "note": "[PBX-7024]", "values": [{"measurement": "apoptotic efficacy (cell viability)", "setting": "FaDu cell line", "result": "potent apoptotic efficacy"}]}, {"smiles": "CCc1c2c(nc3ccc(O)cc13)-c1cc3c(c(=O)n1C2)COC(=O)[C@]3(O)CC", "note": "[SN-38]", "values": [{"measurement": "IC50", "setting": "various cancer lines; several cell lines", "result": "nanomolar range"}]}, {"smiles": "CC[C@@]1(O)C(=O)OCc2c1cc1n(c2=O)Cc2c-1nc1cc3c(c4c1c2[C@@H](N)CC4)OCO3", "note": "(single isomer, unassigned) [PBX-7011]", "values": [{"measurement": "expression of anti-apoptotic proteins (survivin, cIAP2, Mcl-1, XIAP)", "setting": "[1]", "result": "decreased as the concentration increased"}]}, {"smiles": "CC[C@@]1(O)C(=O)OCc2c1cc1n(c2=O)Cc2c-1nc1cc(F)c(C)c3c1c2[C@@H](N)CC3", "note": "[Exatecan, reference compound]", "values": [{"measurement": "expression of anti-apoptotic proteins (survivin, cIAP2, Mcl-1, XIAP)", "setting": "[1]", "result": "strongly inhibit the expression of an anti-apoptotic protein"}]}, {"smiles": "CC[C@@]1(O)C(=O)OCc2c1cc1n(c2=O)Cc2c-1nc1cc3c(c4c1c2[C@@H](NC(=O)[C@@H](C)O)CC4)OCO3", "note": "[PBX-7016]", "values": [{"measurement": "conversion from lactone form to carboxylate form", "setting": "[2]", "result": "more rapidly and at a higher rate than other reference compounds"}, {"measurement": "DDX5 degradation / inhibition", "setting": "DDX5", "result": "inhibited DDX5 in a concentration-dependent manner"}, {"measurement": "clearance from the blood", "setting": "[3]", "result": "cleared from the blood very quickly"}, {"measurement": "expression of anti-apoptotic proteins (survivin, cIAP2, Mcl-1, XIAP)", "setting": "[1]", "result": "decreased as the concentration increased"}, {"measurement": "concentration at 0.167 h", "setting": "in vivo; ip, Mean", "result": 0.164, "unit": "µg/mL"}, {"measurement": "concentration at 1 h", "setting": "in vivo; ip, Mean", "result": 0.0161, "unit": "µg/mL"}, {"measurement": "concentration at 0.167 h", "setting": "in vivo; ip, individual mice", "result": 0.158, "unit": "µg/mL"}, {"measurement": "concentration at 0.167 h", "setting": "in vivo; iv, Mean", "result": 0.0593, "unit": "µg/mL"}, {"measurement": "concentration at 1 h", "setting": "in vivo; iv, Mean", "result": 0.0069, "unit": "µg/mL"}, {"measurement": "concentration at 0.167 h", "setting": "in vivo; iv, individual mice", "result": 0.0762, "unit": "µg/mL"}]}, {"smiles": "CC[C@@]1(O)C(=O)OCc2c1cc1n(c2=O)Cc2c-1nc1ccccc1c2CCNC(C)C", "note": "[CKD-602]", "values": [{"measurement": "adverse drug reactions", "setting": "[4]", "result": "no adverse drug reactions, except an increase in gastric juice secretion"}]}, {"smiles": "CC[C@@]1(O)C(=O)OCc2c1cc1n(c2=O)Cc2c-1nc1cc(F)c(C)c3c1c2[C@@H](NC(=O)CO)CC3", "note": "[Dxd]", "values": [{"measurement": "cytotoxicity / activity relative to SN-38", "setting": "various cancer lines", "result": "approximately 10 times"}]}]}
